# Results reported in US5233062A, “Antibiotic eicosenoic acids” (Merck & Co., Inc., priority 1992, dated 1993).
# Key:
# Assay in all cases: antifungal disc diffusion assay
# Type in all cases: cell-based
# Cryptococous neoformans = tested on: Cryptococous neoformans
# Protocol: (§1) The antifungal activity of the compounds may be detected in an antifungal assay employing disc diffusion methods against a panel of representative yeasts, filamentous fungi (molds) and bacteria.
# (§2) For carrying out the assay, seeded assay plates are prepared in the following manner according to the type of assay strain.
# (§3) Inocula for yeasts and Streptomyces strains are prepared from overnight broth cultures then diluted into potato dextrose […] to a final concentration of either 40 percent or 70 percent transmission at 660 nm.
# (§4) The seeded agar media thus prepared are dispensed into Petri dishes for assays (11 milliliters per dish).
# (§5) The samples to be tested for production of antifungal agent are applied to 6.2 mm. filter paper discs (25 microliter/disc) and air dried at 24° C. When the sample to be tested is crude broth, it may be centrifuged prior to application. The discs bearing the material to be tested are then applied employing sterile conditions to be seeded assay plates and the sample rewet with 25 percent sterile aqueous dimethysulfoxide (25 μl/disc). The assay plates are then incubated at either 28° C. or 37° C. for 24 hours.
# (§6) Following incubation, the inhibition zones are measured and recorded. The measurements are made from the extreme edge where growth differs from the background zone. The zones are noted as to appearance as fuzzy edge and clear center, hazy throughout, slightly hazy, very hazy or ringed.
# Saccharomyces cerevisiae = tested on: Saccharomyces cerevisiae
# Protocol: as §1, §2, §3
# (§7) For strains of Candida albicans and Saccharomyces cerevisiae, sterile saline is employed in place of potato dextrose broth. Assay plates are prepared by diluting the inoculum into appropriate molten agar medium, cooled to 45° C. to obtain a final concentration of 4 percent.
# as §4, §5, §6
# Candida albicans = tested on: Candida albicans
# Protocol: as §1, §2, §3, §7, §4, §5, §6
# Candida neoformans = tested on: Candida neoformans
# Protocol: as §1, §2, §3, §4, §5, §6
# Candida pseudotropicalis = tested on: Candida pseudotropicalis
# Protocol: as §1, §2, §3, §4, §5, §6
# Candida parapsilosis = tested on: Candida parapsilosis
# Protocol: as §1, §2, §3, §4, §5, §6
# Ceratocystis ulmi = conditions: filamentous fungus Ceratocystis ulmi
# Protocol: as §1, §2
# (§8) Inocula for filamentous fungi are prepared by scraping the surface of stock plates maintained on potato dextrose agar with a moistened sterile dacron swab. The spores and mycelia are then suspended in 10 milliliters of sterile potato dextrose broth and adjusted to 70 percent transmission at 660 nm.
# as §4, §5
# (§9) Following incubation, the inhibition zones are measured and recorded. The measurements are made from the extreme edge where growth differs from the background zone. […]
# Alternaria solani = conditions: filamentous fungus Alternaria solani
# Protocol: as §1, §2, §8, §4, §5, §9
Compound,antifungal activity (Cryptococous neoformans),antifungal activity (Saccharomyces cerevisiae),antifungal activity (Candida albicans),antifungal activity (Candida neoformans),antifungal activity (Candida pseudotropicalis),antifungal activity (Candida parapsilosis),antifungal activity (Ceratocystis ulmi),antifungal activity (Alternaria solani)
CCCCCCC(=O)CCCCCC/C=C/C(O)C(O)C(O)C(C)(N)C(=O)O (stereo not drawn) [Compound IB],active,active,active,,,,,
CCCCCCC(=O)CCCCCC/C=C/C(O)C(O)C(O)C(N)(CO)C(=O)O (stereo not drawn) [Compound IA],,,active,active,active,active,very strong antifungal activity,very strong antifungal activity
